Target: T1, human Cystic Fibrosis Transmembrane Conductance Regulator (CFTR) harboring the ΔF508 mutation (Homo sapiens, UniProt P13569, DEL508-508)
T1 construct: expressed in transfected cells; host or cells: H441 carcinoma line (G418 selection)
Test: H441 cell Emax and EC50: HRP-tagged ΔF508-CFTR cell surface luminescence assay
Type: cell-based
Conditions: H441 cells expressing ΔF508-CFTR-HRP, 27° C., two nights; for EC50: 15-point dose-response, top 24.5 μM; for Emax: NCI-H441, % of maximum VX809 signal
Source text: Two cell lines were used, the H441 carcinoma line and the CFHBE41o-(41o-) human bronchial epithelial line. Both cell lines expressed human Cystic Fibrosis Transmembrane Conductance Regulator (CFTR) harboring the ΔF508 mutation and with an in-frame fusion in CFTR extracellular loop 4 of Horse Radish Peroxidase (HRP) under control of the CMV promoter. In the presence of the HRP tag, ΔF508-CFTR transported to the cell surface was detectable upon addition of an HRP substrate (Luminata Forte). Both cell types were cultivated at 37° C. with CO2.
For both cell types, the medium was changed every other day unless the culture was at low % confluence. Cells were used for the assays at ˜75% confluence.
To a polypropylene (PP) 384-well plate, 15 μls DMSO was added to all wells in columns 1-22 and 24 (low Control). 15 μls of 260 μM VX809 (Lumacaftor), Selleckchem S1565, was added to column 23 wells (high Control). 15 μls of 10 mM test compound or VX809 (control) were added to wells of row A. Serial dilutions of Row A compound were performed 2×15 μls in rows A through O (15-point).
A PP, 384-well plate containing the appropriate cell culture medium was prepared for each assay plate with 100 μls per well. For the doxycycline-induced 41o-cells, doxycycline for both the assay plate and the medium dilution plate was added at 0.0005 mg/ml to the medium.
Both cell lines were plated for the assay at 30 uls per 384-well at 3.4×10^e5 cells per ml (˜10K cells/well). H441 cells were plated on opaque, white, Corning plate 3704. 41o-cells were plated on collagen-coated opaque, white, Corning plate 356665. For 41o-cells, doxycycline was added to the medium.
Using FX (Beckman) protocol, 10 uls diluted compound or medium was added per well to the Assay Plate as: 2 μls DMSO Dilution plate well is diluted in 100 uls of the Medium Dilution Plate well, mixed, and 10 uls is transferred to the Assay Plate.
The final assay dilution series is 24.5, 12.3, 6.1, 3.1, 1.5, 0.8, 0.4, 0.2, 0.1, 0.05, 0.02, 0.01, 0.006, 0.003, 0.001 and 0 μM. The 41o-assay plates were incubated at 37° C. w/CO2, the H441 assay plates were incubated at 27° C. w/CO2, each overnight for two nights.
After being brought to room temperature, the assay plate liquid was removed. 30 μls of Luminata Forte (Millipore ELLUF0100) was added per well and incubated at room temperature for 10 min. The plates were then read on a Topcount, protocol LumiMatti (CPS, luminescence). The data was analyzed for % of maximum, maximum VX809 signal, and EC50 using Pearl and SPEED tools.

T1 sequence (P13569 with tags, fused parts or gaps DEL508-508): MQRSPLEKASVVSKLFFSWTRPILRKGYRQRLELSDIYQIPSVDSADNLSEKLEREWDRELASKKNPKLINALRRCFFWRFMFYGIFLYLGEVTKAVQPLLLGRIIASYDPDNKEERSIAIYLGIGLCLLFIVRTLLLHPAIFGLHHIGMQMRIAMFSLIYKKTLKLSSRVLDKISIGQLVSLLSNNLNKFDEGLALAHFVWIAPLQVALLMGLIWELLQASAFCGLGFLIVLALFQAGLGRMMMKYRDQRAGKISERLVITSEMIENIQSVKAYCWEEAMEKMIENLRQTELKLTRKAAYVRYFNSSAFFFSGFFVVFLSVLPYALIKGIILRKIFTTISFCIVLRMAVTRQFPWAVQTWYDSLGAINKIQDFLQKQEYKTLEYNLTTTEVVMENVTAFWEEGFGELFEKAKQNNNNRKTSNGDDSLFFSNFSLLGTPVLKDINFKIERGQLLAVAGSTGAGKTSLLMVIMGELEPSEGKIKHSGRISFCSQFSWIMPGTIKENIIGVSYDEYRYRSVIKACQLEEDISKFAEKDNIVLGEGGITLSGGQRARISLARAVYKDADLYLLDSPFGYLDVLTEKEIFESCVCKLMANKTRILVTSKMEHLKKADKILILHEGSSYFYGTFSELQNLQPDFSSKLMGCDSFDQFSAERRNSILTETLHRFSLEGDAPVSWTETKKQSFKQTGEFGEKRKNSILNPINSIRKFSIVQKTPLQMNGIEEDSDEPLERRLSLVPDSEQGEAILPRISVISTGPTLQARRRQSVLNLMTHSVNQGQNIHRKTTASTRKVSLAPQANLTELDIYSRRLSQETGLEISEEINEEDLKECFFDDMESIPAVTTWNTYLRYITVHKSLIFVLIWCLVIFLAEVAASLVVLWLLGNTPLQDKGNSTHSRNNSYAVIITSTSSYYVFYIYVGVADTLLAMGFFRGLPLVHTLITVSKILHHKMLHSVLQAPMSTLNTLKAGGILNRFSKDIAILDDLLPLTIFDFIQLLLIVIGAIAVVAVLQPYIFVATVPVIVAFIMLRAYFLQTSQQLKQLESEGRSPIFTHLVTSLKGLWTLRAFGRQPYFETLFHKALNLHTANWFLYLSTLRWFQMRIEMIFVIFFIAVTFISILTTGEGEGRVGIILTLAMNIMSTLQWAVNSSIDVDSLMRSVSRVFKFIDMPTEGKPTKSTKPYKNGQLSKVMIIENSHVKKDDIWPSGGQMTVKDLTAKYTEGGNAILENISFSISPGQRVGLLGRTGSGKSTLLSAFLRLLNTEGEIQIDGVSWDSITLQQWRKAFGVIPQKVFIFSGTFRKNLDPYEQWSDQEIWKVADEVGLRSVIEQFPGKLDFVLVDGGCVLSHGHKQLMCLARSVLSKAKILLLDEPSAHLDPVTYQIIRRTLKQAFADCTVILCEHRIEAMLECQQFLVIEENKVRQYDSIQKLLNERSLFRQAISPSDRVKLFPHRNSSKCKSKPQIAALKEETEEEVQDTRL

Row | SMILES | EC50 | Emax
1 | NC12CC3CC(C1)CC([C@H](NC(=O)c1ccc4ccccc4c1OCc1ccc(C(F)(F)F)cc1)C(=O)O)(C3)C2 [compound 92] | – | -1.3%
2 | O=C(N[C@H](C(=O)O)C12CC3CC(CC(C3)C1)C2)c1ccc2ccccc2c1OCc1ccc(S(=O)(=O)C(F)(F)F)cc1 [compound 61] | 446 nM | 100%
3 | O=C(N[C@H](C(=O)O)C12CC3CC(CC(C3)C1)C2)c1ccc2cccnc2c1OCc1ccc(OC(F)(F)F)cc1 [compound 84] | 660 nM | 149%
4 | O=C(N[C@H](C(=O)O)C12CC3CC(CC(C3)C1)C2)c1sc2ccccc2c1OCC1CCCCC1 [compound 94] | 915 nM | 257%
5 | O=C(N[C@H](C(=O)O)C12CC3CC(CC(C3)C1)C2)c1ccc2cccnc2c1OCc1ccc(C(F)(F)F)cc1 [compound 41] | 468 nM | 173%
6 | O=C(N[C@H](C(=O)O)C12CC3CC(CC(C3)C1)C2)c1ccc2ccccc2c1OC[C@H]1CC[C@H](C(F)(F)F)CC1 [compound 48] | 729 nM | 124%
7 | O=C(N[C@H](C(=O)O)C12CC3CC(CC(C3)C1)C2)c1ccc2ccccc2c1OCC1(C(F)(F)F)CC1 [compound 102, (2S)-2-(1-adamantyl)-2-[[1-[[1-(trifluoromethyl)cyclopropyl]methoxy]naphthalene-2-carbonyl]amino]acetic acid] | 18000 nM | 53.1%
8 | O=C(N[C@H](C(=O)O)C12CC3CC(CC(C3)C1)C2)c1sc2ccccc2c1OCc1ccc(OC(F)(F)F)cc1 [compound 93] | 908 nM | 108%
9 | O=C(N[C@H](C(=O)O)C12CC3CC(CC(C3)C1)C2)c1ccc2occc2c1OCc1nc2ccccc2s1 [compound 122, (2S)-2-(1-adamantyl)-2-[[4-(1,3-benzothiazol-2-ylmethoxy)benzofuran-5-carbonyl]amino]acetic acid] | 1510 nM | 171%
10 | O=C(O)[C@@H](N1CN(Cc2ccc(OC(F)(F)F)cc2)c2c(ccc3ccccc23)C1=O)C12CC3CC(CC(O)(C3)C1)C2 [compound 119] | 614 nM | 71%
11 | O=C(N[C@H](C(=O)O)C12CC3CC(CC(C3)C1)C2)c1ccc2ccccc2c1OCc1ccc(OC(F)F)cc1 [compound 78] | ≥ 24500 nM | 7.8%
12 | O=C(N[C@H](C(=O)O)C12CC3CC(CC(C3)C1)C2)c1ccc2cccnc2c1OCC1CCCCC1 [compound 5] | 1160 nM | 249%
13 | CN(Cc1ccc(C(F)(F)F)cc1)c1c(CC(=O)N[C@H](C(=O)O)C23CC4CC(CC(C4)C2)C3)ccc2ccccc12 [compound 134, (2S)-2-(1-adamantyl)-2-[[2-[1-[methyl-[[4-(trifluoromethyl)phenyl]methyl]amino]-2-naphthyl]acetyl]amino]acetic acid] | – | -17.5%
14 | O=C(N[C@H](C(=O)O)C12CC3CC(CC(C3)C1)C2)c1ccc2sccc2c1OCc1ccc(Cl)c(Cl)c1 [compound 110, (2S)-2-(1-adamantyl)-2-[[4-[(3,4-dichlorophenyl)methoxy]benzothiophene-5-carbonyl]amino]acetic acid] | 382 nM | 173%
15 | Cc1ccc2c(c1C)N(Cc1ccc(C(F)(F)F)cc1)CN([C@H](C(=O)O)C13CC4CC(CC(C4)C1)C3)C2=O [compound 136, (2S)-2-(1-adamantyl)-2-[7,8-dimethyl-4-oxo-1-[[4-(trifluoromethyl)phenyl]methyl]-2H-quinazolin-3-yl]acetic acid] | 1580 nM | 17%
16 | O=C(N[C@H](C(=O)O)C12CC3CC(CC(O)(C3)C1)C2)c1ccc2cc(F)ccc2c1OCc1ccc(S(F)(F)(F)(F)F)cc1 [compound 50] | 2170 nM | 76.4%
17 | O=C(N[C@H](C(=O)O)C12CC3CC(CC(C3)C1)C2)c1ccc2occc2c1OCC1CCCCC1 [compound 116, (2S)-2-(1-adamantyl)-2-[[4-(cyclohexylmethoxy)benzofuran-5-carbonyl]amino]acetic acid] | 1770 nM | 212%
18 | O=C(N[C@H](C(=O)O)C12CC3CC(CC(O)(C3)C1)C2)c1sc2ccccc2c1OCc1ccc(OC(F)(F)F)cc1 [compound 13] | 3480 nM | 87.3%
19 | O=C(N[C@H](C(=O)O)C12CC3CC(Cl)(CC(Cl)(C3)C1)C2)c1ccc2ccccc2c1NCc1ccc(SC(F)(F)F)cc1 [compound 130, (2S)-2-(3,5-dichloro-1-adamantyl)-2-[[1-[[4-(trifluoromethylsulfanyl)phenyl]methylamino]naphthalene-2-carbonyl]amino]acetic acid] | 477 nM | 60.6%
20 | COc1c(F)c(COc2c(C(=O)N[C@H](C(=O)O)C34CC5CC(CC(C5)C3)C4)ccc3ccccc23)c(F)c(F)c1C(F)(F)F [compound 86] | 526 nM | 24%
21 | CS(=O)(=O)c1ccc(COc2c(C(=O)N[C@H](C(=O)O)C34CC5CC(CC(O)(C5)C3)C4)ccc3ccccc23)cc1 [compound 10] | 16900 nM | 29.2%
22 | COc1ccc2c(OCc3ccc(SC(F)(F)F)cc3)c(C(=O)N[C@H](C(=O)O)C34CC5CC(CC(C5)C3)C4)ccc2c1 [compound 83] | 947 nM | 16.4%
23 | O=C(N[C@H](C(=O)O)C12CC3CC(CC(O)(C3)C1)C2)c1ccc2cccnc2c1OCc1ccc(C(F)(F)F)cc1 [compound 22] | 3660 nM | 175%
24 | O=C(N[C@H](C(=O)O)C12CC3CC(CC(O)(C3)C1)C2)c1ccc2cc(F)ccc2c1OCc1ccc(SC(F)(F)F)cc1 [compound 4] | 991 nM | 55.7%

The next lines start with the values.

Row | EC50 | Emax | SMILES
25 | 296 nM | 92.5% | O=C(N[C@H](C(=O)O)C12CC3CC(CC(C3)C1)C2)c1ccc2cc(F)ccc2c1OCc1ccc(SC(F)(F)F)cc1 [compound 57]
26 | 78 nM | 184% | O=C(N[C@H](C(=O)O)[C@]12C[C@H]3C[C@](O)(C[C@](Cl)(C3)C1)C2)c1ccc2ccccc2c1OCc1ccc(OC(F)(F)F)cc1 [compound 80, (S)-2-((1S,3S,5R,7S)-3-chloro-5-hydroxyadamantan-1-yl)-2-(1-((4-(trifluoromethoxy)benzyl)oxy)-2-naphthamido)acetic acid]
27 | 228 nM | 54.9% | C=COc1ccc2c(OCc3ccc(C(F)(F)F)cc3)c(C(=O)N[C@H](C(=O)O)C34CC5CC(CC(C5)C3)C4)ccc2c1 [compound 63]
28 | 228 nM | 106% | O=C(N[C@H](C(=O)O)C12CC3CC(CC(OCCF)(C3)C1)C2)c1ccc2cc(F)ccc2c1OCc1ccc(C(F)(F)F)cc1 [compound 25]
29 | 350 nM | 204% | O=C(N[C@H](C(=O)O)C12CC3CC(CC(C3)C1)C2)c1ccc2ccccc2c1OCc1ccc(Cl)c(Cl)c1 [compound 89]
30 | 183 nM | 113% | O=C(N[C@H](C(=O)O)C12CC3CC(CC(OCC(F)(F)F)(C3)C1)C2)c1ccc2cc(F)ccc2c1OCc1ccc(C(F)(F)F)cc1 [compound 26]
31 | 155 nM | 132% | O=C(N[C@H](C(=O)O)C12CC3CC(CC(C3)C1)C2)c1ccc2cc(O)ccc2c1OCc1ccc(C(F)(F)F)cc1 [compound 37]
32 | 245 nM | 217% | CC12CC3(C)CC(C)(C1)CC([C@H](NC(=O)c1ccc4cccnc4c1OCc1ccc(C(F)(F)F)cc1)C(=O)O)(C2)C3 [compound 62]
33 | 328 nM | 158% | O=C(N[C@H](C(=O)O)C12CC3CC(CC(C3)C1)C2)c1sc2ccccc2c1OCc1ccc(C(F)(F)F)cc1 [compound 15]
34 | 261 nM | 165% | O=C(N[C@H](C(=O)O)C12CC3CC(CC(C3)C1)C2)c1ccc2sccc2c1OCc1ccc(OC(F)(F)F)cc1 [compound 111, (2S)-2-(1-adamantyl)-2-[[4-[[4-(trifluoromethoxy)phenyl]methoxy]benzothiophene-5-carbonyl]amino]acetic acid]
35 | 131 nM | 56.2% | COc1ccc2c(OCc3ccc(C(F)(F)F)cc3)c(C(=O)N[C@H](C(=O)O)C34CC5CC(CC(C5)C3)C4)ccc2c1 [compound 38]

— patent US12637414B2, “Arylamides and methods of use thereof” (Genzyme Corporation, priority 2019, dated 2026)
